Measured values: PubChem BioAssay AID256 (DTP/NCI, 2004)
Toxic doses and inconclusive results are not listed. Rule for the calls: active = survival T/C of 150% or more; inactive = T/C below 125% in these data.

System: CD2F1 mice, L1210 leukemia ip, survival T/C
Experiment: NCI In Vivo Anticancer Drug Screen. Data for tumor model L1210 Leukemia (intraperitoneal) in CD2F1 (CDF1) mice
Conditions: endpoint: mean survival time, higher = longer survival
How it was run: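 Implant tumor; dose compound or vehicle; measure endpoint in both groups; report treated divided by control.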

[1] = dose: 100.0 mg/kg/injection, schedule: Q04DX003 (ip), vehicle: saline with Tween-80
[2] = dose: 200.0 mg/kg/injection, schedule: Q04DX003 (ip), vehicle: saline with Tween-80
[3] = dose: 400.0 mg/kg/injection, schedule: Q04DX003 (ip), vehicle: saline with Tween-80
[4] = dose: 100.0 mg/kg/injection, schedule: Q04DX002 (ip), vehicle: saline with Tween-80
[5] = dose: 200.0 mg/kg/injection, schedule: Q04DX002 (ip), vehicle: saline with Tween-80
[6] = dose: 100.0 mg/kg/injection, schedule: Q01DX001 (ip), vehicle: saline with Tween-80
[7] = dose: 200.0 mg/kg/injection, schedule: Q01DX001 (ip), vehicle: saline with Tween-80
[8] = dose: 50.0 mg/kg/injection, schedule: Q04DX003 (ip), vehicle: saline with Tween-80
[9] = dose: 100.0 mg/kg/injection, schedule: Q01DX009 (ip), vehicle: saline
[10] = dose: 200.0 mg/kg/injection, schedule: Q01DX009 (ip), vehicle: saline
[11] = dose: 100.0 mg/kg/injection, schedule: Q01DX009 (ip), vehicle: saline with Tween-80
[12] = dose: 200.0 mg/kg/injection, schedule: Q01DX009 (ip), vehicle: saline with Tween-80
[13] = dose: 400.0 mg/kg/injection, schedule: Q01DX009 (ip), vehicle: saline with Tween-80
[14] = dose: 400.0 mg/kg/injection, schedule: Q01DX001 (ip), vehicle: saline with Tween-80

Measured: T/C

NCCSSCC(N)C(=O)O (stereo not given)
inactive: [1] 106 % of control | [2] 103 % of control | [3] 94 % of control

COc1cc(C2=N/C(=C\c3ccc(C(C)C)cc3)C(=O)O2)cc(OC)c1OC
inactive: [4] 90 % of control | [5] 90 % of control | dose: 400.0 mg/kg/injection, schedule: Q04DX002 (ip), vehicle: saline with Tween-80 94 % of control

O=c1c(Br)cnc2ccccn12
inactive: dose: 12.5 mg/kg/injection, schedule: Q01DX001 (ip), vehicle: saline 107 % of control | dose: 25.0 mg/kg/injection, schedule: Q01DX001 (ip), vehicle: saline 98 % of control | dose: 50.0 mg/kg/injection, schedule: Q01DX001 (ip), vehicle: saline 102 % of control

Nc1ccc2oc(=O)c(C(=O)O)cc2c1
inactive: [6] 93 % of control | [7] 89 % of control

CCCCCOC(=S)S.[Pt]
inactive: dose: 6.25 mg/kg/injection, schedule: Q04DX003 (ip), vehicle: saline with Tween-80 101 % of control | dose: 12.5 mg/kg/injection, schedule: Q04DX003 (ip), vehicle: saline with Tween-80 104 % of control | dose: 25.0 mg/kg/injection, schedule: Q04DX003 (ip), vehicle: saline with Tween-80 108 % of control | [8] 101 % of control | [1] 104 % of control

C1CCC2CN(CCCN3CCOCC3)CC2C1 (stereo not given)
inactive: [9] 102 % of control | [10] 96 % of control

O=C(O)C(O)CBr (stereo not given)
inactive: dose: 12.5 mg/kg/injection, schedule: Q04DX003 (ip), vehicle: saline 101 % of control | dose: 25.0 mg/kg/injection, schedule: Q04DX003 (ip), vehicle: saline 106 % of control | dose: 50.0 mg/kg/injection, schedule: Q04DX003 (ip), vehicle: saline 106 % of control

CCCCCCCCCCCCCCCCC(C)(O)C#CC(C)(O)CCCCCCCCCCCCCCCC (stereo not given)
inactive: dose: 100.0 mg/kg/injection, schedule: Q01DX005 (ip), vehicle: other 97 % of control | dose: 200.0 mg/kg/injection, schedule: Q01DX005 (ip), vehicle: other 97 % of control | dose: 400.0 mg/kg/injection, schedule: Q01DX005 (ip), vehicle: other 101 % of control

CCCCCCCCCCCCCCCC[n+]1cccc(C(=O)NCO)c1
inactive: dose: 6.25 mg/kg/injection, schedule: Q01DX009 (ip), vehicle: saline with Tween-80 102 % of control | dose: 12.5 mg/kg/injection, schedule: Q01DX009 (ip), vehicle: saline with Tween-80 95 % of control | dose: 25.0 mg/kg/injection, schedule: Q01DX009 (ip), vehicle: saline with Tween-80 95 % of control | [8] 103 % of control | [2] 103 % of control

CC(=O)OC1C(C)OC(n2ncc(=O)[nH]c2=O)C(OC(C)=O)C1OC(C)=O (stereo not given)
inactive: dose: 12.5 mg/kg/injection, schedule: Q01DX005 (ip), vehicle: distilled water + Tween-80 103 % of control | dose: 25.0 mg/kg/injection, schedule: Q01DX005 (ip), vehicle: distilled water + Tween-80 100 % of control | dose: 50.0 mg/kg/injection, schedule: Q01DX005 (ip), vehicle: distilled water + Tween-80 103 % of control | dose: 100.0 mg/kg/injection, schedule: Q01DX005 (ip), vehicle: distilled water + Tween-80 103 % of control | dose: 200.0 mg/kg/injection, schedule: Q01DX005 (ip), vehicle: distilled water + Tween-80 107 % of control

Cc1csc(C)[n+]1C
inactive: dose: 25.0 mg/kg/injection, schedule: Q01DX009 (ip), vehicle: saline sonified 102 % of control | dose: 50.0 mg/kg/injection, schedule: Q01DX009 (ip), vehicle: saline sonified 104 % of control | [6] 100 % of control | dose: 100.0 mg/kg/injection, schedule: Q01DX009 (ip), vehicle: saline sonified 98 % of control

O=C(O)C(CSC(c1ccccc1)(c1ccccc1)c1ccccc1)NC(c1ccccc1)(c1ccccc1)c1ccccc1 (stereo not given)
inactive: dose: 75.0 mg/kg/injection, schedule: Q01DX001 (ip), vehicle: other 97 % of control

CC1CC(C)(C)N=C(CCCCCCl)O1 (stereo not given)
inactive: dose: 50.0 mg/kg/injection, schedule: Q04DX002 (ip), vehicle: saline with Tween-80 101 % of control | [6] 103 % of control | [4] 108 % of control | [7] 105 % of control | [5] 112 % of control

O=C(O)/C=C/c1ccco1
inactive: [11] 95 % of control | [1] 101 % of control | [12] 94 % of control | [2] 98 % of control | [13] 96 % of control | [3] 108 % of control

NN=C1c2ccccc2-c2ccccc21
inactive: [1] 94 % of control | [2] 86 % of control | [3] 96 % of control

NC(C(=O)O)C(O)c1ccc2c(c1)OCO2 (stereo not given)
inactive: [1] 98 % of control | [2] 92 % of control | [3] 95 % of control

COc1ccccc1-n1c(C)nc2c(cnn2C2OC(CO)C(O)C2O)c1=O (stereo not given)
inactive: dose: 12.5 mg/kg/injection, schedule: Q01DX005 (ip), vehicle: saline 107 % of control | dose: 25.0 mg/kg/injection, schedule: Q01DX005 (ip), vehicle: saline 101 % of control | dose: 50.0 mg/kg/injection, schedule: Q01DX005 (ip), vehicle: saline 101 % of control | dose: 100.0 mg/kg/injection, schedule: Q01DX005 (ip), vehicle: saline 98 % of control | dose: 200.0 mg/kg/injection, schedule: Q01DX005 (ip), vehicle: saline 101 % of control

c1ccc(CN2CCC(Nc3ccccc3)(c3nnnn3C3CCCCC3)CC2)cc1
inactive: [6] 95 % of control | [7] 96 % of control | [14] 90 % of control

O=C1CCC(=O)N1C1c2ccccc2Oc2ccccc21
inactive: [9] 96 % of control | [10] 91 % of control | dose: 400.0 mg/kg/injection, schedule: Q01DX009 (ip), vehicle: saline 92 % of control

O=c1cc(C(Br)(Br)Br)[nH]c2ccccc12
inactive: [1] 99 % of control | [2] 97 % of control | [3] 99 % of control

CC(C)(C)C1=CC(=N/S(=O)(=O)c2ccccc2)/C(N=[N+]=[N-])=C(Cl)C/1=N\S(=O)(=O)c1ccccc1
inactive: dose: 25.0 mg/kg/injection, schedule: Q01DX001 (ip), vehicle: saline with Tween-80 101 % of control | dose: 50.0 mg/kg/injection, schedule: Q01DX001 (ip), vehicle: saline with Tween-80 93 % of control | [6] 93 % of control | [7] 95 % of control | [14] 100 % of control

COC(=O)C1(C)CCCC2(C)C1CCC1(O)C2CC2OC2(C(C)C)C1O (stereo not given)
inactive: [11] 102 % of control | [1] 97 % of control | [12] 96 % of control | [2] 93 % of control | [13] 98 % of control | [3] 87 % of control

Cc1ccc(S(=O)(=O)OCCCCCCCCCCOS(=O)(=O)c2ccc(C)cc2)cc1
inactive: [11] 91 % of control | [1] 91 % of control | [12] 92 % of control | [2] 97 % of control | [13] 91 % of control | [3] 94 % of control

Cc1ncc2c(=O)[nH]cnc2n1
inactive: [1] 93 % of control | [2] 91 % of control | [3] 90 % of control
